Consider one molecule from article PMC10693084, “Novel 8-Methoxycoumarin-3-Carboxamides with potent anticancer activity against liver cancer via targeting caspase-3/7 and β-tubulin polymerization” (BMC Chemistry, 2023).

The term IC50 denotes the midpoint of a concentration-inhibition curve. Low values mean greater potency, high ones weaker potency.

The test system of experiment [1] is WI 38 normal cells. Nature of the experiment: MTT cytotoxicity assay against WI 38 normal cells. The format is cell-based. The note with it: Homo sapiens, WI 38 normal lung cells, 24 h treatment. As for the experimental part: Following the incubation period, the cells were subjected to various concentrations of the prepared molecules and subsequently incubated for a duration of 24 h. […] Subsequently, a volume of 100 μL of dimethyl sulfoxide (DMSO) was introduced into each well in order to facilitate the dissolution of the purple formazan that had been generated. The quantification of the color intensity of the formazan product, which serves as an indicator of the cellular growth condition, is performed by employing an ELISA plate reader set at a wavelength of 570 nm. The experimental conditions were implemented with a minimum of three replicates, and the experiments were conducted on at least three separate occasions.
(In general: Formazan colour is commonly taken as a measure of viable cells.)

In experiment [2] the test system is HepG2 cells. In words: Cell cycle analysis by flow cytometry (PI). The format is cell-based, human. Particulars: HepG2, 0.9 µM (IC50), 24 h. As for the experimental part: Next, our investigations focused on evaluating the effects of compound 5 on the cell cycle of HepG2 cells utilizing flow cytometric analysis. The cells were treated with compound 5 at a concentration corresponding to the IC50 value and the cell cycle distribution was then analyzed, and the results were compared with untreated control cells. […] Conversely, there was a notable increase in the cellular population at the G2/M and pre-G1 phases. […] These findings indicate that compound 5 induces a notable arrest in cell growth during the […] phase. The flow cytometric analysis of HepG2 cells treated with compound 5 provided valuable insights into its effects on the cell cycle distribution. […] The G0/G1 phase is the resting phase, where cells prepare for DNA replication and cell division, while the S phase is where DNA replication occurs. […] This is a critical control point where the cell ensures that DNA replication is complete and free from errors before entering mitosis. […] The most remarkable finding was the dramatic rise in the pre-G1 population upon treatment with compound 5. The pre-G1 phase is associated with cells undergoing apoptosis, which is a programmed cell death process. […] This implies that the treatment with compound 5 leads to the activation of apoptotic pathways, causing the cells to undergo DNA fragmentation and degradation, ultimately leading to cell death. […] G2/M arrest prevents cells from progressing through the cell cycle, while apoptosis eliminates the damaged or aberrant cells. These combined effects may contribute to the compound's potent anti-cancer activity against HepG2 cells.
The quantification of DNA content in the cell cycle analysis was performed using a FACS Calibur flow cytometer at a wavelength of 488 nm, following the guidelines provided by the manufacturer. […] Following the completion of the treatment, the cells underwent two rounds of washing and were subsequently resuspended in phosphate-buffered saline (PBS). Following the washing step, a volume of 0.7 ml of absolute ethanol was subsequently introduced, and the mixture was incubated at a temperature of -20 °C for a duration of 20 min. Following the washing step, a volume of 500 μl of RNase was introduced, and subsequently, the mixture was incubated for a duration of 30 min. Next, the addition of PI was carried out, followed by a 30-min incubation period, during which exposure to light was carefully avoided.
A general note: In flow cytometry, cells or beads pass a laser one at a time.

Experiment [3] addresses T1, β-tubulin (Homo sapiens, UniProt P07437).
T1 construct: impact of compound 5 on β-tubulin polymerization activity in HepG2 cells; endogenous in cells; host or cells: HepG2
Nature of the experiment: β-tubulin polymerization activity (TUB β ELISA, 450 nm) in HepG2 cells. Type of experiment: cell-based. The note with it: HepG2, 0.9 µM, 24 h. From the text:
Microtubules are widely recognized as a significant target for anti-cancer therapy due to their pivotal involvement in cellular division and the preservation of cellular morphology. The impact of numerous anti-cancer agents is achieved through their ability to disrupt microtubule dynamics. This disruption ultimately results in the deregulation of mitotic spindles, leading to cell cycle arrest in cancer cells and subsequently inducing apoptosis. Toward this end, we further aimed to assess investigated the impact of compound 5 on β-tubulin polymerization activity in HepG2 cells. Thus, HepG2 cells were treated with compound 5 at (0.9 µM) for a duration of 24 h and the activity of β-tubulin polymerization was explored using spectrophotometry at 450 nm. […] These findings indicate that compound 5 interferes with the process of microtubule assembly, thereby disrupting the proper formation of mitotic spindles. […]
Dulbecco's Modified Eagle Medium (DMEM) (Invitrogen/Life Technologies) containing 10% fetal bovine serum (FBS) (Hyclone), 10 µg/mL of insulin (Sigma), and 1% penicillin–streptomycin was used for culturing the HepG2 cell line. […] This color change was then quantitatively measured using spectrophotometry at a specific wavelength of 450 nm ± 10 nm. […]
(In an ELISA, binding on a coated surface is turned into a signal by an enzyme label.)

T1 sequence (P07437 whole entry): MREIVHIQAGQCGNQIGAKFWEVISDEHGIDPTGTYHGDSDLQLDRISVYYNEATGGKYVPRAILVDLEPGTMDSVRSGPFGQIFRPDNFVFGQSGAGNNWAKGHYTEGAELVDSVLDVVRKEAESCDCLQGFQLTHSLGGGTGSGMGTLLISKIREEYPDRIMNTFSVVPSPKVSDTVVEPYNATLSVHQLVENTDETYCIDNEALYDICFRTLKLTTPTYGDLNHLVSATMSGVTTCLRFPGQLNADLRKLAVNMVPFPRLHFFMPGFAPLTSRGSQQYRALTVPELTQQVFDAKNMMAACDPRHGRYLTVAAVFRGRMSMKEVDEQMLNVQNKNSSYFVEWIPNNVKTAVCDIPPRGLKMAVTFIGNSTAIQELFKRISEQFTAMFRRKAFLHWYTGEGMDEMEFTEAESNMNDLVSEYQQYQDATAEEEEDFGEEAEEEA
T1 sequence (P68363 whole entry partner): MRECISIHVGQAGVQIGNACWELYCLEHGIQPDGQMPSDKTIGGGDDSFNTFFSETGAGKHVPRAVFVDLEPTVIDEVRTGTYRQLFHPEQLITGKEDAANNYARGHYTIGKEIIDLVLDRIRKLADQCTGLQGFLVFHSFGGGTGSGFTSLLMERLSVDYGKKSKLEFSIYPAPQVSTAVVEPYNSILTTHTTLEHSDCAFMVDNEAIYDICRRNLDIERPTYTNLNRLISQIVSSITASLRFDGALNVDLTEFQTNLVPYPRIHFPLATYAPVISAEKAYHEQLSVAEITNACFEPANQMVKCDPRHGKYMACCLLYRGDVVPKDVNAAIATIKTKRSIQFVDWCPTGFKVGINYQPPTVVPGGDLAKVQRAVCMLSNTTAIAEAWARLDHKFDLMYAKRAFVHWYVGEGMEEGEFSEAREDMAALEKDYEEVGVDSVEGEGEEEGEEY

In turn, `COc1ccc(Br)c2cc(C(N)=O)c(=O)oc12` [Compound 5, 5-Bromo-8-methoxycoumarin-3-carboxamide] registered an IC50 in experiment [1] of 24.1 ± 1.46 µM. Also, the “percentage of cells in pre-G1 phase” value in experiment [2] (untreated 2.08%) came to 45.88%. Moreover, in experiment [2] (untreated 15.38%), the “percentage of cells in G2/M phase” value is 31.51%. Besides, the “percentage of cells in S phase” value in experiment [2] (untreated 34.91%) is 27.4%. Moreover, the “percentage of cells in G0/G1 phase” value in experiment [2] (untreated 49.71%) came out at 41.09%. Moreover, the “reduction in the concentration of β-tubulin polymerization vs untreated HepG2 cells” value in experiment [3] was “threefold”.
